Measured values from PubChem BioAssay (NCI).
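Following 48 hours of exposure in 96-well plates, responses at five concentrations were used to interpolate endpoints linearly. GI50 is the concentration that inhibits growth by half. Definition used: TGI = concentration required for complete inhibition of growth.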

Tests used:
Assay in all cases: NCI anticancer screen, dose series, 48 h
PC-3 prostate = system: PC-3 prostate
SF-268 CNS = system: SF-268 CNS
OVCAR-5 ovarian = system: OVCAR-5 ovarian
SK-MEL-28 melanoma = system: SK-MEL-28 melanoma
NCI/ADR-RES ovarian = system: NCI/ADR-RES ovarian
UACC-257 melanoma = system: UACC-257 melanoma
ACHN renal = system: ACHN renal
SK-MEL-5 melanoma = system: SK-MEL-5 melanoma
DU-145 prostate = system: DU-145 prostate
EKVX NSCLC = system: EKVX NSCLC

Row | Compound | GI50 (PC-3 prostate) | TGI (PC-3 prostate) | GI50 (SF-268 CNS) | TGI (SF-268 CNS) | GI50 (OVCAR-5 ovarian) | TGI (OVCAR-5 ovarian) | GI50 (SK-MEL-28 melanoma) | TGI (SK-MEL-28 melanoma) | GI50 (NCI/ADR-RES ovarian) | TGI (NCI/ADR-RES ovarian) | GI50 (UACC-257 melanoma) | TGI (UACC-257 melanoma) | GI50 (ACHN renal) | TGI (ACHN renal) | GI50 (SK-MEL-5 melanoma) | TGI (SK-MEL-5 melanoma) | GI50 (DU-145 prostate) | TGI (DU-145 prostate) | TGI (EKVX NSCLC) | GI50 (EKVX NSCLC)
1 | O=C1c2nsnc2C(=O)c2c(F)c(F)c(F)c(F)c21 | 1.51 µM | 3.1 µM | 1.6 µM | 3.17 µM | 1.93 µM | 3.47 µM | 594 nM | 1.76 µM | 1.63 µM | 4.33 µM | 1.61 µM | 3 µM | 501 nM | 1.2 µM | 1240 nM | 2.52 µM | 1320 nM | 2.63 µM | – | –
2 | O=C1c2ccccc2C(=O)N1CCN(CCN1C(=O)c2ccccc2C1=O)Cn1cccn1 | – | – | – | > 100 µM | – | – | – | > 100 µM | – | – | – | > 100 µM | – | > 100 µM | – | > 100 µM | – | – | > 100 µM | –
3 | O=C1CCC2CC(C(=O)c3ccccc3)CCC2CN1 (centres undefined) (tested in a mixture with another compound) | – | – | – | > 100 µM | – | > 100 µM | – | > 100 µM | – | – | – | > 100 µM | – | > 100 µM | – | > 100 µM | – | – | > 100 µM | –
4 | N#Cc1ccccc1NC(=O)C(=O)c1c(O)c2ccccc2oc1=O | – | > 100 µM | – | > 100 µM | – | > 100 µM | – | > 100 µM | – | > 100 µM | – | > 100 µM | – | > 100 µM | – | > 100 µM | – | – | > 100 µM | –
5 | COC(=O)C(CC(C)C)NC(=O)NC12CC3CC(CC(F)(C3)C1)C2 (centres undefined) | – | – | – | – | – | > 100 µM | – | > 100 µM | – | – | – | > 100 µM | – | > 100 µM | – | > 100 µM | – | – | > 100 µM | –
6 | COC(=O)C(C(=O)C(=O)Nc1nc(=S)[nH][nH]1)c1csc(-n2nc(-c3ccccc3)cc2-c2ccccc2)n1 (centres undefined) | – | – | – | > 100 µM | – | > 100 µM | – | – | – | – | – | > 100 µM | – | > 100 µM | – | – | – | – | > 100 µM | –
7 | O=C(O)C[C@H]1CCCCC12CCOC2=O (some centres undefined) | – | – | – | > 100 µM | – | > 100 µM | – | > 100 µM | – | – | – | > 100 µM | – | > 100 µM | – | > 100 µM | – | – | > 100 µM | –
8 | COC(=O)/C=C(\C(=O)OC)c1c2c3c(cc(OC)c(OC)c3c3ccccc13)CCN2C | – | – | – | > 100 µM | – | > 100 µM | – | > 100 µM | – | – | – | 89.7 µM | – | > 100 µM | – | 34.3 µM | – | – | > 100 µM | –
9 | CC1=NOC(=O)/C1=C/c1cccc2ccccc12 | – | – | – | > 100 µM | – | > 100 µM | – | > 100 µM | – | – | – | > 100 µM | – | > 100 µM | – | > 100 µM | – | – | > 100 µM | –
10 | N/N=C(\C(=O)Nc1ccc(Cl)cc1Cl)C(c1cnc2ccccc2n1)[N+](=O)[O-] (centres undefined) | – | > 100 µM | – | > 100 µM | – | > 100 µM | – | > 100 µM | – | > 100 µM | – | > 100 µM | – | > 100 µM | – | > 100 µM | – | – | > 100 µM | –
11 | NS(=O)(=O)c1ccc(NC2=CC(=O)C(=O)c3ccccc32)cc1 | – | – | – | > 100 µM | – | > 100 µM | – | > 100 µM | – | – | – | > 100 µM | – | > 100 µM | – | > 100 µM | – | – | > 100 µM | –
12 | Oc1ccc(O)c(-c2cn3ccsc3n2)c1 | 10.1 µM | 21.7 µM | 14.4 µM | > 100 µM | 12 µM | 26.5 µM | – | – | 12.9 µM | 25.5 µM | 24.3 µM | 50.3 µM | 12700 nM | 25.3 µM | 12700 nM | 25.2 µM | – | – | 35.8 µM | 18.4 µM
13 | Cc1ccc(NC(=O)C(=O)C(C#N)c2nc(-c3ccc(-c4ccccc4)cc3)cs2)c(C)c1 (centres undefined) | – | – | – | > 100 µM | – | > 100 µM | – | > 100 µM | – | – | – | > 100 µM | – | > 100 µM | – | > 100 µM | – | – | > 100 µM | –
14 | CCCCCCCCCCCCCC(=O)OCC1OC(n2cc(F)c(=O)[nH]c2=O)C(NC(=O)OCc2ccccc2)C(OC(=O)CCCCCCCCCCCCC)C1O (centres undefined) | – | – | – | > 100 µM | – | > 100 µM | – | > 100 µM | – | – | – | > 100 µM | – | > 100 µM | – | > 100 µM | – | – | > 100 µM | –
15 | O=C(c1ccccc1)[C@H]1Nc2ccc(Cl)cc2C2c3ccccc3CC21 (some centres undefined) | – | – | – | > 100 µM | – | > 100 µM | – | 97 µM | – | – | – | 85.9 µM | – | > 100 µM | – | 85.2 µM | – | – | – | –
16 | Cn1cc(C2=C(c3cn(C)c4c([N+](=O)[O-])cccc34)C(=O)NC2=O)c2ccccc21 | > 25 µM | > 25 µM | > 25 µM | > 25 µM | > 25 µM | > 25 µM | > 25000 nM | > 25 µM | > 25 µM | > 25 µM | > 25 µM | > 25 µM | > 25000 nM | > 25 µM | > 25000 nM | > 25 µM | > 25000 nM | > 25 µM | – | –
17 | Cc1cc2c(cc1C)[n+](=O)c(C(=O)C/C(=N/OCCCc1ccccc1)C(=O)Nc1cc(Cl)ccc1Cl)c(C)n2[O-] | – | – | – | > 100 µM | – | > 100 µM | – | > 100 µM | – | – | – | > 100 µM | – | > 100 µM | – | > 100 µM | – | – | > 100 µM | –
18 | COc1c(C(=O)c2ccc([N+](=O)[O-])cc2)cc(C(C)(C)C)cc1C(C)(C)C | – | – | – | > 100 µM | – | > 100 µM | – | 72.8 µM | – | – | – | 59.3 µM | – | > 100 µM | – | 32.1 µM | – | – | > 100 µM | –
19 | COC(=O)/C(=N\Nc1nc(=S)[nH]n1N)C(C#N)c1ccccc1 (centres undefined) | – | – | – | > 100 µM | – | > 100 µM | – | > 100 µM | – | – | – | > 100 µM | – | > 100 µM | – | > 100 µM | – | – | > 100 µM | –
20 | CC(=O)Nc1cc(N(CCOS(C)(=O)=O)CCOS(C)(=O)=O)ccc1N=O | – | – | – | > 100 µM | – | > 100 µM | – | > 100 µM | – | – | – | > 100 µM | – | > 100 µM | – | > 100 µM | – | – | – | –
21 | COc1ccc(C(=O)c2cc(OC)c(OC)c(OC)c2)cc1/C=C/C(=O)c1ccc(OC)c(OC)c1 | 5.9 µM | > 100 µM | 3 µM | > 100 µM | 3.67 µM | > 100 µM | 4590 nM | > 100 µM | 0.466 µM | > 100 µM | 3.19 µM | > 100 µM | 1320 nM | > 100 µM | – | – | 2210 nM | > 100 µM | – | –
22 | CCOC(=O)C1C2CCC(C2)C1(CCl)C(=O)OCC (centres undefined) | – | – | – | > 100 µM | – | > 100 µM | – | > 100 µM | – | – | – | > 100 µM | – | > 100 µM | – | > 100 µM | – | – | – | –
23 | O=C1NC(=O)C(=C/C=C/c2ccccc2)C(=O)N1 | 4.59 µM | 23.4 µM | 3.2 µM | 10.3 µM | 5.33 µM | 23 µM | 1910 nM | 3.59 µM | 3.78 µM | 16.7 µM | 2.24 µM | 7.34 µM | 2320 nM | 5.65 µM | 2240 nM | 4.94 µM | 2130 nM | 4.87 µM | – | –
